Assays:
DCLK2 (human) = DCLK2 (human) (UniProt Q8N568); assay: KINOMEscan competition binding; details: compound 10.0 µM
ALK (human) = ALK (human) (UniProt Q9UM73); assay: KINOMEscan competition binding; details: compound 10.0 µM
[1] = test system: ABL1 (human), P00519 [F317I]; assay: KINOMEscan competition binding; details: compound 10.0 µM
TNK2 (human) = TNK2 (human) (UniProt Q07912); assay: KINOMEscan competition binding; details: compound 10.0 µM
DCLK1 (human) = DCLK1 (human) (UniProt O15075); assay: KINOMEscan competition binding
TNK1 (human) = TNK1 (human) (UniProt Q13470); assay: KINOMEscan competition binding; details: compound 10.0 µM
TTK (human) = TTK (human) (UniProt P33981); assay: KINOMEscan competition binding; details: compound 10.0 µM
MAPK7 (human) = MAPK7 (human) (UniProt Q13164); assay: KINOMEscan competition binding; details: compound 10.0 µM
ROS1 (human) = ROS1 (human) (UniProt P08922); assay: KINOMEscan competition binding; details: compound 10.0 µM
RPS6KA1 KD2 (human) = RPS6KA1 KD2 (human) (UniProt Q15418); assay: KINOMEscan competition binding; details: compound 10.0 µM
PLK4 (human) = PLK4 (human) (UniProt O00444); assay: KINOMEscan competition binding; details: compound 10.0 µM
RPS6KA6 KD2 (human) = RPS6KA6 KD2 (human) (UniProt Q9UK32); assay: KINOMEscan competition binding; details: compound 10.0 µM
GAK (human) = GAK (human) (UniProt O14976); assay: KINOMEscan competition binding; details: compound 10.0 µM
[2] = target: LRRK2 (human), Q5S007 [G2019S]; assay: SelectScreen, TR FRET
TAOK2 (human) = TAOK2 (human) (UniProt Q9UL54); assay: SelectScreen, TR FRET
MAP3K2 (human) = MAP3K2 (human) (UniProt Q9Y2U5); assay: SelectScreen, TR FRET
MAP3K3 (human) = MAP3K3 (human) (UniProt Q99759); assay: SelectScreen, TR FRET

DCLK1 (human), sequence (O15075 whole entry, looked up): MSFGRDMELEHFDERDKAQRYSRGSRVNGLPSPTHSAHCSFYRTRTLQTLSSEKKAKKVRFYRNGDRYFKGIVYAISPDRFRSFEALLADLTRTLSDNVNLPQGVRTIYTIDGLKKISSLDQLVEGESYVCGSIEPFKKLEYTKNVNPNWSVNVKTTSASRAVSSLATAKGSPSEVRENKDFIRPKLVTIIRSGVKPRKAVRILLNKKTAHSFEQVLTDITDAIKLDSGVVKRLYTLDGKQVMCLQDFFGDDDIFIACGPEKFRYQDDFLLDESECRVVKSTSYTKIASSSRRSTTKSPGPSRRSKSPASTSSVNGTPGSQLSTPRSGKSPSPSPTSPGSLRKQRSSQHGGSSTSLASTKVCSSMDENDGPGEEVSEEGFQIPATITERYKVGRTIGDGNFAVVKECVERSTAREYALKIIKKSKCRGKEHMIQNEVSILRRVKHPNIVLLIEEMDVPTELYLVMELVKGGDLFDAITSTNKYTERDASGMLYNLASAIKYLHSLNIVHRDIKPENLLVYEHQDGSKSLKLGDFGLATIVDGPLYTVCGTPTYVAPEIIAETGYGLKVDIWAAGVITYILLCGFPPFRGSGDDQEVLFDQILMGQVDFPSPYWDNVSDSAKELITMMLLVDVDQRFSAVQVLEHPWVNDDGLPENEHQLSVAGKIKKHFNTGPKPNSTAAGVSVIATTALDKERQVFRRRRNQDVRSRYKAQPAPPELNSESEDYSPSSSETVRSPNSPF
PLK4 (human), sequence (O00444 whole entry, looked up): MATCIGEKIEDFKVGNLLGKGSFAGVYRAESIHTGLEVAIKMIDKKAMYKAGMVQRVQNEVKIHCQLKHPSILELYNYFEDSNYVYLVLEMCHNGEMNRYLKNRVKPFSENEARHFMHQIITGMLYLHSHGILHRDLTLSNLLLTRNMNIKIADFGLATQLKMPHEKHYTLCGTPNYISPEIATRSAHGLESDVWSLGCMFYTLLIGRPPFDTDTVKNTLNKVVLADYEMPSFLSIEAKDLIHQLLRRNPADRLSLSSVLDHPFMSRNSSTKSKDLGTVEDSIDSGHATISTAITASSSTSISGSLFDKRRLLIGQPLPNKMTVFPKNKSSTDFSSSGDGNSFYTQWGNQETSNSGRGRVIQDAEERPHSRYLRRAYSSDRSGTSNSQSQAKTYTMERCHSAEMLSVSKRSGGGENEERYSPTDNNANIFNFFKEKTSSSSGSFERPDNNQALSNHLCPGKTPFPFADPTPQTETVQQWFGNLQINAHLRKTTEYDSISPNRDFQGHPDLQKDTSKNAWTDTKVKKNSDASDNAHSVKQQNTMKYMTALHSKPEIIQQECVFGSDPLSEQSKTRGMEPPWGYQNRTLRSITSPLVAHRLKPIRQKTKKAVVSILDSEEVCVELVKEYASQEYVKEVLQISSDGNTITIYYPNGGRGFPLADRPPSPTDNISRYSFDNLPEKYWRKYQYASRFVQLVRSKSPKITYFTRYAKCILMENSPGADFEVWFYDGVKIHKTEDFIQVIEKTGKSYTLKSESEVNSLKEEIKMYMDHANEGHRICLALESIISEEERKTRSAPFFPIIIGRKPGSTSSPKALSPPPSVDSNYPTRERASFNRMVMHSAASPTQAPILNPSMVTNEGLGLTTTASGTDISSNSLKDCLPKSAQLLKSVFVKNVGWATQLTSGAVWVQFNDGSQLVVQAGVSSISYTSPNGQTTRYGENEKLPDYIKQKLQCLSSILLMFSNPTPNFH
LRRK2 (human), Q5S007 [G2019S], sequence (Q5S007 whole entry G2019S, looked up): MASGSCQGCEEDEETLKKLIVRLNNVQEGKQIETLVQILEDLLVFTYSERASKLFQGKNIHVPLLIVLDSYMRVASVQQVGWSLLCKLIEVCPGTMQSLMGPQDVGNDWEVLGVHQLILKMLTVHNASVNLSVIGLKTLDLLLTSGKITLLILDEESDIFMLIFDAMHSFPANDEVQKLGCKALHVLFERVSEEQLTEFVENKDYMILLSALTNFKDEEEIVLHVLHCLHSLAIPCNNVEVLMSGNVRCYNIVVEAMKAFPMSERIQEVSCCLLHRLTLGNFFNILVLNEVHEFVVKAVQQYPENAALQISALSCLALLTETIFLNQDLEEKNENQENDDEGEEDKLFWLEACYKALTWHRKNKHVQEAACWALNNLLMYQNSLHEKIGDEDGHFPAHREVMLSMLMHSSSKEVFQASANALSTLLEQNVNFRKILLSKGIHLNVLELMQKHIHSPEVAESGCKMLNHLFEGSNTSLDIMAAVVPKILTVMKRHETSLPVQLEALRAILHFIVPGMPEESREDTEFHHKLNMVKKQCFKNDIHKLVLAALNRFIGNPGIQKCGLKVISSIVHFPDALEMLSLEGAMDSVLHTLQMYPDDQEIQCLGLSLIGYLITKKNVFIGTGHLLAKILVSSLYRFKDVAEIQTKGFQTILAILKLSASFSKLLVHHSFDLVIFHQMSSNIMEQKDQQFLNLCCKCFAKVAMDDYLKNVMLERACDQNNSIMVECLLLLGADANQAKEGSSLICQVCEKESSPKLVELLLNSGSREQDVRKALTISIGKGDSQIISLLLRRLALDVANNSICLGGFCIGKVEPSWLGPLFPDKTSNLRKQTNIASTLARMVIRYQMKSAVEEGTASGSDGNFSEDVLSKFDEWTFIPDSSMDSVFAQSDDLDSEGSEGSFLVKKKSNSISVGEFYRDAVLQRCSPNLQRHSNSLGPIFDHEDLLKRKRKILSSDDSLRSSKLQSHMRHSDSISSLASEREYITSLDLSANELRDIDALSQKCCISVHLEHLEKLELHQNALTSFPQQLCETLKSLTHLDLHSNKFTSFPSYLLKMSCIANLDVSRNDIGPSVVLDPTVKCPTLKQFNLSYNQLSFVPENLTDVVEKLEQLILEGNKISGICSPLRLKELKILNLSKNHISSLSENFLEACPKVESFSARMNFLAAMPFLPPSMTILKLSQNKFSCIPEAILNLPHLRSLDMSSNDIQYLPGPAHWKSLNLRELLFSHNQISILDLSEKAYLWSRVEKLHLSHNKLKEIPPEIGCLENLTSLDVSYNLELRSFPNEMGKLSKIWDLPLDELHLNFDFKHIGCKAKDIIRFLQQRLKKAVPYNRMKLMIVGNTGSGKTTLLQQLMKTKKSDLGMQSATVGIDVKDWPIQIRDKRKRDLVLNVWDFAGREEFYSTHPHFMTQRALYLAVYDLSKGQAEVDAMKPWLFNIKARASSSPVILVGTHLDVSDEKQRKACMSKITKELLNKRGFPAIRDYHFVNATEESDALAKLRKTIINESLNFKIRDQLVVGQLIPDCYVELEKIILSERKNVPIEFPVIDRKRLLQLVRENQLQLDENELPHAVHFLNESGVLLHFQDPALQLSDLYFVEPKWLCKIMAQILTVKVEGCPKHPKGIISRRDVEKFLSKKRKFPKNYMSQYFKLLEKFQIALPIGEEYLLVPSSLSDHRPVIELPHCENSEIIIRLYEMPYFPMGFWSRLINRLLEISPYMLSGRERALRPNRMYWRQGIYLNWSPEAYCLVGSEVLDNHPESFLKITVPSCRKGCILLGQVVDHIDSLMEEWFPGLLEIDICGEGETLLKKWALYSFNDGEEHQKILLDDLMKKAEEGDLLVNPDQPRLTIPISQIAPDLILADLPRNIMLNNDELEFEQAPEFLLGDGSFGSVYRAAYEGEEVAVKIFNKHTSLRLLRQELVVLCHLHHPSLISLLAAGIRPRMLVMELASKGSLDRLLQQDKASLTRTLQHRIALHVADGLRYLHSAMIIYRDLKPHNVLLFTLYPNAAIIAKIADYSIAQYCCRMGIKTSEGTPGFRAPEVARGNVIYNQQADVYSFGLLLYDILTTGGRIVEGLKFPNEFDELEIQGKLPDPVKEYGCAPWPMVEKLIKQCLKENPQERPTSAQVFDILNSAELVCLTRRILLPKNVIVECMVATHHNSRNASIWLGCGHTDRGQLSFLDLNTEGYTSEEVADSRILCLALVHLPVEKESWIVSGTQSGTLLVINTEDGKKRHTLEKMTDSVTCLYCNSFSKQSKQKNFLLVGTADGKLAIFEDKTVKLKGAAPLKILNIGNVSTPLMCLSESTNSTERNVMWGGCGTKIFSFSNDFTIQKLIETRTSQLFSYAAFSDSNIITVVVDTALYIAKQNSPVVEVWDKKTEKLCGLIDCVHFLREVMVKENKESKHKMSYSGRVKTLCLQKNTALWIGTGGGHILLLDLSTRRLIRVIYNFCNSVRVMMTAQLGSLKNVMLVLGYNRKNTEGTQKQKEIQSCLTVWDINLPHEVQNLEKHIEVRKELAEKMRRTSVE
TNK1 (human), sequence (Q13470 whole entry, looked up): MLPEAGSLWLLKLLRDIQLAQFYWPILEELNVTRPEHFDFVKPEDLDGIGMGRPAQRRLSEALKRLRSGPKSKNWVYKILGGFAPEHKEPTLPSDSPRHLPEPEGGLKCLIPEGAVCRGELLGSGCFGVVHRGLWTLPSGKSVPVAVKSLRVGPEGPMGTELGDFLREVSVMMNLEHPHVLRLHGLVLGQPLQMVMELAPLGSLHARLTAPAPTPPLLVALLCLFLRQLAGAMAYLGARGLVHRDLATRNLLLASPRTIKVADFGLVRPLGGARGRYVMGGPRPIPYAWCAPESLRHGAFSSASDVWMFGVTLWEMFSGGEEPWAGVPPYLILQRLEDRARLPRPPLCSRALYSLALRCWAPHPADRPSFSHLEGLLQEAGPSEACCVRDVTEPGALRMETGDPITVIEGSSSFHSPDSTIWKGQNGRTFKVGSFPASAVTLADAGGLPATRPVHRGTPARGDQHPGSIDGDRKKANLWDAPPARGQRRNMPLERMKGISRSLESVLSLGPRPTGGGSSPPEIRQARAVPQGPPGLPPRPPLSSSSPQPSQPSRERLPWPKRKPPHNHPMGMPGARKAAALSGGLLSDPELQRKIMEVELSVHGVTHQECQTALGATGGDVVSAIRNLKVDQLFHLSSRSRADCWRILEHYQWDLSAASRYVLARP

SMILES: CCOc1cc(N2CCC(O)CC2)ccc1Nc1ncc2c(n1)N(C)c1ccccc1C(=O)N2C
- kinase still bound, per cent of control (DCLK2 (human)): 0.65%
- kinase still bound, per cent of control (ALK (human)): 29%
- kinase still bound, per cent of control [1]: 30%
- kinase still bound, per cent of control (TNK2 (human)): 17%
- Kd (DCLK1 (human)): 97 nM
- kinase still bound, per cent of control (DCLK1 (human); compound 10.0 µM): 0.9%
- kinase still bound, per cent of control (TNK1 (human)): 7.8%
- kinase still bound, per cent of control (TTK (human)): 19%
- kinase still bound, per cent of control (MAPK7 (human)): 0%
- kinase still bound, per cent of control (ROS1 (human)): 15%
- kinase still bound, per cent of control (RPS6KA1 KD2 (human)): 28%
- kinase still bound, per cent of control (PLK4 (human)): 2.8%
- kinase still bound, per cent of control (RPS6KA6 KD2 (human)): 31%
- kinase still bound, per cent of control (GAK (human)): 31%
- IC50 [2]: 2.6 nM
- IC50 (TAOK2 (human)): 54.3 nM
- IC50 (MAP3K2 (human)): 155 nM
- IC50 (MAP3K3 (human)): 120 nM
